Results reported in patent publication EP0942896B1, “SUBSTITUTED PHENOLS AND THIOPHENOLS USEFUL AS ANTIOXIDANT AGENTS” (Aventis Pharmaceuticals Inc., priority 1996, dated 1998).
Where two headings read alike, the source gives them in different places.

How the values were obtained:
[1] = HPLC quantitation of compound and metabolite concentration in rat serum and liver; type: in vivo; details: male, Sprague-Dawley, oral, 0.3 % in chow, diet 0.3%, 4 days, mean N = 5
Description: (§1) A typical experiment consists of 4-6 groups of rats (N = 5 per group) with I group being a control which receives no MDL compound and the other groups being treated with 0.3% MDL compound. Some of the compounds are either repeated at 0.3% or evaluated again at the lower dose of 0.1%. House Male Sprague-Dawley rats, 50-100 g, (Harlan Laboratories, Indianapolis, IN) in groups of 5, feeding ad libitum water and Purina Rodent chow (#5002) with or without MDL compound as a dietary admixture for 4 days. Make dietary admixtures (0.3%) by mixing 1.2 grams of an MDL compound with 400 grams of Purina rodent chow (#5002). Mix the MDL compound with approximately 50 grams of food using a mortar and pestle. This is added to the remainder of the food and mixed for 3 hours on a rotary mixer. In the morning of day 5, anesthetize non-fasted rats with carbon dioxide, and collect blood by cardiac puncture. Sacrifice rats by cervical dislocation. Record body weights and liver weights in grams. Record food consumption as grams • day^-1 • rat^-1. Deaths are recorded as mortality. Use aliquots of fresh serum for clinical chemistries, thiobarbituric acid reactive substances (TBARS) and conjugated diene measurements. Freeze aliquots of serum (∼ 0.5mL) and whole livers at -20°C for compound and metabolite concentration determination at a later time.
Determine serum and liver concentrations of parent compound and the metabolites, bisphenol and diphenoquinone, by reverse phase HPLC using a Waters 990 Powerline system. Homegenize livers (1 gram samples) with 5.0mL PBS, pH 7.4, using a Polytron tissue homogenizer at setting 5 for 20-30 seconds. Extract serum or liver homogenates as follows: add 100µL of either serum or homogenate to 2.0mL diethyl ether: ethanol (3:1) while vortexing the tube. Cap the sample tubes and centrifuge for 10 min at 5°C at 3500 rpm in a Beckman GPKR centrifuge with a GH 3.7 rotor. Transfer the supernatants to clean tubes and dry under N2. Reconstitute samples with 200µL of acetonitrile : hexane : 0.1 M ammonium acetate (90: 6.5 : 3.5, by vol.). Then, inject 100µL onto a Waters Deltapak C18-300 Å column, and elute with an 83% acetonitrile : 17% water mobile phase at a flow rate of 1.5mL/min. Record absorbances at the wavelengths of 240, 254, and 420nm. Calculate compound concentrations from known quantities of authentic parent compounds after correction for recovery. […]. Calculate concentrations as µg/mL of serum and µg/g of liver.

Male Sprague-Dawley Rats = assay: Serum clinical chemistries in rats fed compound as dietary admixture; type: in vivo; details: % of control, diet 0.3%, 4 days, N = 5; for ALT: alanine aminotransferase in rat serum; for ALP: alkaline phosphatase in rat serum; for AST: aspartate aminotransferase in rat serum; for GLUC: glucose in rat serum; for response vs control in vivo at 0.3 % in diet: feed or water, 96 h
Description: as §1
Allow blood to clot at room temperature for 30 minutes. Obtain serum after centrifugation for 10 min at 4°C at 3000 rpm in a Beckman J-6M/E centrifuge with a JS-4.2 rotor. Analyze fresh serum by a COBAS MIRA S autoanalyzer (Roche Diagnostics) using Roche diagnostic reagents for the following clinical chemistry measurements: alkaline phosphatase (ALP, kit # 44553), alanine transaminase (ALT, kit # 42375), aspartate aminotransferase (AST, kit # 42381), total cholesterol (CHOL, kit # 44334), triglyceride (TG, kit # 44120), and glucose (GLU, kit # 44558). Calculate ALP, ALT, and AST as units/L. Calculate cholesterol, triglycerides, and glucose as mg/dL.

[2] = Animal parameters (food, body weight, liver weight/body weight, mortality) in rats; type: in vivo; details: 4 days; for food / lw/bw / body wt.: % of control, diet 0.3%, N = 5; for food: grams eaten per day per rat; for lw/bw: liver weight/body weight; for lw/bw / body wt. / mortality: rat; for body wt.: weight in grams; for mortality: male, Sprague-Dawley, in vivo
Description: as §1

VCAM-1 = assay: Inhibition of cytokine-induced VCAM-1 expression in human aortic smooth muscle cells (cell ELISA); type: cell-based; details: HASMC, interleukin-4 stimulated, average of three runs, read-out: VCAM-1 (% inh. 50 µM)
Description: (§2) Plate proliferating human umbilical vein endothelial cells (HUVEC) or human aortic smooth muscle cells (HASMC) from Clonetics (San Diego, CA) onto 96-well plates in 100 µL medium per well at 20,000 cells per cm^2. Maintain the cultures in growth medium (EGM or SMGM2, Clonetics, San Diego, CA) for two days prior to addition of cytokines or drugs. Add cytokines plus or minus compounds for 20 to 24 hours prior to analysis for adhesion molecule levels. Add tumor necrosis factor (Genzyme, Cambridge, MA) to cultures at 500-1000 units/mL to stimulate ICAM-1 expression. Add interleukin-4 (GIBCO-BRL, Gaithersburg, MD) to cultures at 100-200 pg/mL to stimulate VCAM-1 expression. […] Remove the culture medium, and wash the monolayers twice with Hanks buffered saline solution (HBSS) at room temperature. Add the primary antibody (anti-human VCAM-1 from Upstate Biotechnology, Inc., Lake Placid, NY or anti-human ICAM-1 from Immunotech, Inc., Westbrook, ME) to each well (1 µg/mL in HBSS plus 5% newborn calf serum, GIBCO-BRL, Gaithersburg, MD) and incubate at 37°C for 1 hr. Wash the wells twice with HBSS, then add 100 µL of a 1/1000 dilution of goat anti-mouse IgG conjugated to horse radish peroxidase (BioRad, Hercules, CA) in HBSS plus 5% newborn calf serum to each well and incubated for 1 hr at 37°C. Wash the wells three times with HBSS, then add 100 µL of TMB substrate (BioRad, Hercules, CA) to each well. Stop the reaction after blue color develops by addition of 50 µL of IN H2SO4. Measure absorbance at 450 nm with a plate reader.
(§3) Table 1 summarizes the ability of selected compounds of this invention to inhibit VCAM-1 and ICAM-1 using human aortic smooth muscle cells (HASMC). In these experiments, the cells were coincubated with interleukin-4 to stimulate VCAM-1 expression and with tumor necrosis factor-alpha to stimulate ICAM-1 expression.

ICAM-1 = assay: Inhibition of cytokine-induced ICAM-1 expression in human aortic smooth muscle cells (cell ELISA); type: cell-based; details: HASMC, tumor necrosis factor-alpha stimulated, average of two runs, numbers in parentheses represent negative values, read-out: ICAM-1 (% inh. 50 µM)
Description: as §2, §3

[3] = parent compound concentration in rat liver, read-out: Liver Parent
[4] = parent compound concentration in rat serum, read-out: Serum Parent
[5] = total cholesterol in rat serum, read-out: CHOL
[6] = triglycerides in rat serum, read-out: TRIG

## CC(C)=CCC[C@H](C)CCOc1cc(C(C)(C)C)c(O)c(C(C)(C)C)c1 [MDL 103,294, Phenol, 2,6-bis(1,1-dimethylethyl)-4-[(3,7-dimethyl-6-octenyl)oxy]-, (S)-]
[1]; [3]
  concentration at 5 day: 64600 ng/g
[1]; [4]
  concentration at 5 day: 21700 ng/mL
Male Sprague-Dawley Rats
  ALT: 132%
  ALP: 124%
  AST: 88%
  GLUC: 103%
Male Sprague-Dawley Rats; [5]
  response vs control in vivo at 0.3 % in diet: 102%
Male Sprague-Dawley Rats; [6]
  response vs control in vivo at 0.3 % in diet: 56%
[2]
  food: 108%
  lw/bw: 129%
  body wt.: 101%
  mortality: 0%

## CC(C)=CCCC(C)CCSc1cc(C(C)(C)C)c(O)c(C(C)(C)C)c1 (stereo not drawn) [MDL 103,960, Phenol, 2,6-bis(1,1-dimethylethyl)-4-[(3,7-dimethyl-6-octenyl)thio]-]
[1]; [3]
  concentration at 5 day: 47300 ng/g
[1]; [4]
  concentration at 5 day: 8700 ng/mL
VCAM-1
  inhibition at 50 µM: 33.9 ± 6%
Male Sprague-Dawley Rats
  ALT: 117%
  ALP: 125%
  AST: 102%
  GLUC: 110%
Male Sprague-Dawley Rats; [5]
  response vs control in vivo at 0.3 % in diet: 113%
Male Sprague-Dawley Rats; [6]
  response vs control in vivo at 0.3 % in diet: 80%
[2]
  food: 105%
  lw/bw: 130%
  body wt.: 100%
  mortality: 0%
ICAM-1
  inhibition at 50 µM: 0%

## CC(C)CCCC(C)CCOc1ccc(O)c(C(C)(C)C)c1 (stereo not drawn) [MDL 104,191, Phenol, 2-(1,1-dimethylethyl)-4-[(3,7-dimethyloctyl)oxy]-]
[1]; [3]
  concentration at 5 day: 16100 ng/g
[1]; [4]
  concentration at 5 day: 6900 ng/mL
VCAM-1
  inhibition at 50 µM: 42.9 ± 7%
Male Sprague-Dawley Rats
  ALT: 149%
  ALP: 81%
  AST: 146%
  GLUC: 106%
Male Sprague-Dawley Rats; [5]
  response vs control in vivo at 0.3 % in diet: 109%
Male Sprague-Dawley Rats; [6]
  response vs control in vivo at 0.3 % in diet: 112%
[2]
  food: 76%
  lw/bw: 126%
  body wt.: 92%
  mortality: 0%
ICAM-1
  inhibition at 50 µM: 22%

## CC(C)=CCC[C@@H](C)CCOc1cc(C(C)(C)C)c(O)c(C(C)(C)C)c1 [MDL 104,535, Phenol, 2,6-bis(1,1-dimethylethyl)-4-[(3,7-dimethyl-6-octenyl)oxy]-,(R)-]
[1]; [3]
  concentration at 5 day: 60300 ng/g
[1]; [4]
  concentration at 5 day: 16300 ng/mL
VCAM-1
  inhibition at 50 µM: 26.4 ± 14%
Male Sprague-Dawley Rats
  ALT: 108%
  ALP: 151%
  AST: 94%
  GLUC: 112%
Male Sprague-Dawley Rats; [5]
  response vs control in vivo at 0.3 % in diet: 103%
Male Sprague-Dawley Rats; [6]
  response vs control in vivo at 0.3 % in diet: 60%
[2]
  food: 95%
  lw/bw: 119%
  body wt.: 102%
  mortality: 0%
ICAM-1
  inhibition at 50 µM: 10%
